US20180015167A1, “CROSSLINKABLE TREHALOSE FOR THE COVALENT INCORPORATION IN HYDROGELS AND METHODS OF USE” (INVIVO THERAPEUTICS CORPORATION, priority 2013, published 2018)

Test: Solubility of hydrogel precursors in water / aqueous buffer
Assay type: physicochemical
Method: Hydrogels formed by mixing trehalose diacrylate and thiol-containing 4-arm PEG of molecular weight 5000 (4arm-PEG5k-SH). Briefly, trehalose diacrylate was dissolved in PBS (pH7.4, 1.06 mM potassium phosphate monobasic, 150 mM sodium chloride, 2.97 mM sodium phosphate dibasic) to prepare a trehalose-containing precursor solution at a concentration of 50 mg/ml. 9.42 mg 4arm-PEG5k-SH (0.0075 mmol thiols) was dissolved in 66.1 μl PBS and the solution was mixed with 33.9 μl trehalose diacrylate solution (1.7 mg, 1 molar equivalents based on thiols) and by vortexing.
Hydrogels formed by mixing ethoxylated-trimethylolpropan tri(thioglycolate) (TMPE-TGA), PEG diacrylate, and varying amounts of trehalose diacrylate. The following protocol has been used for gel formulation at the 150 μl scale. Briefly, TMPE-TGA was dissolved in PBS to prepare a 40 wt % thiol-containing precursor solution. Trehalose diacrylate was dissolved in PBS to prepare a trehalose-containing precursor solution at a concentration of 40 mg/ml. 10.875 mg PEG diacrylate of molecular weight 700 (PEGDA700, 0.75 molar equivalents based on thiols) was dissolved in 49.94 μl PBS and the solution was mixed with 58.3 μl trehalose diacrylate solution (2.33 mg, 0.25 molar equivalents based on thiols) and 41.8 μl TMPE-TGA solution (0.041 mmol thiols) by vortexing. […]

solubility in aqueous buffer (PBS pH7.4, room temperature): soluble in aqueous buffer
water solubility (PBS, room temperature): water soluble
SMILES: C=CC(=O)OC[C@H]1O[C@H](O[C@H]2O[C@H](COC(=O)C=C)[C@@H](O)[C@H](O)[C@H]2O)[C@H](O)[C@@H](O)[C@@H]1O [trehalose diacrylate]
